The text below walks through data of patent publication US8367662B2, “Organic compounds” (Novartis AG, priority 2007, dated 2013).

First the molecules themselves.
T1: human ALK5 (ALK5 T204D kinase domain) (Homo sapiens, UniProt P36897, T204D)
T1 construct: The kinase domain of human ALK5 (amino acids 200-503); made in house; host or cells: insect cells (baculovirus)
T1 sequence (P36897 200-503 T204D): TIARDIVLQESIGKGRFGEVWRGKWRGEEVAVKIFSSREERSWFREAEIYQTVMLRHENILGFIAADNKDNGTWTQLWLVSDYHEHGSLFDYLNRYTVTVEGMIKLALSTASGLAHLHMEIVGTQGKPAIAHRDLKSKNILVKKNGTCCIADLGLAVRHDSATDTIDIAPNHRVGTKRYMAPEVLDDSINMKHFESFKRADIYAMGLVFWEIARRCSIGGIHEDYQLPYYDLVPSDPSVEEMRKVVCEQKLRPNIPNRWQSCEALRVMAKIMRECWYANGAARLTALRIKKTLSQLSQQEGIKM

B1: follistatin: an antagonist of activin signalling (protein, UniProt P19883 30-344, looked up)
Follistatin: GNCWLRQAKNGRCQVLYKTELSKEECCSTGRLSTSWTEEDVNDNTLFKWMIFNGGAPNCIPCKETCENVDCGPGKKCRMNKKNKPRCVCAPDCSNITWKGPVCGLDGKTYRNECALLKARCKEQPELEVQYQGRCKKTCRDVFCPGSSTCVVDQTNNAYCVTCNRICPEPASSEQYLCGNDGVTYSSACHLRKATCLLGRSIGLAYEGKCIKAKSCEDIQCTGGKKCLWDFKVGRGRCSLCDELCPDSKSDEPVCASDNATYASECAMKEAACSSGVLLEVKHSGSCNSISEDTEEEEEDEDQDYSFPISSILEW

For one data set, the system named is dimethylnitrosamine induced liver fibrosis.
Test: not given
The following applies: rat, during the 3 weeks treatment; cited from earlier work.
With `c1ccc(-c2cc(-c3cn[nH]c3-c3ccccn3)ccn2)cc1` [GW6604], the side effects result is given as “no obvious side effects”.

The same data set, now with this note: rat, given therapeutically, dimethylnitrosamine induced liver fibrosis; cited from earlier work.
Turning to `c1ccc(-c2cc(-c3cn[nH]c3-c3ccccn3)ccn2)cc1` [GW6604], the death rate prevented is 40% and the “inhibition of extracellular matrix deposition” value is recorded as 60%.

The target in the next data set is T1, human ALK5 (ALK5 T204D kinase domain). Kind of data set: ALK5 kinase assay: [33P] phosphate incorporation into casein. The format is biochemical. The following applies: casein substrate, 1 μM unlabelled ATP. On the procedure:
The kinase activity of ALK5 is assessed by measuring radiolabelled phosphate [33P] incorporation in to the generic substrate, casein. The kinase domain of human ALK5 (amino acids 200-503) is fused to an N-terminal histidine tag. The kinase activity of ALK5 is rendered constitutive via point mutation at amino acid 204 (threonine to aspartate modification, ALK5 T204D) and the kinase construct is engineered to be expressed from a baculovirus expression construct in insect cells. The purified, recombinantly-expressed histidine-tagged ALK5 T204D protein is dissolved at 5.4 mg/ml in 50 mM Tris-HCl pH 8.0, 150 mM NaCl, 5 mM DTT. ALK5 T204D is dissolved to 2.5 μg/ml in assay buffer (Assay buffer: 20 mM Tris-HCl pH 7.4, 10 mM MgCl2, 2 mM MnCl2) on the day of use.
Test compounds and reference compounds are dissolved in assay buffer without DTT containing 5% (v/v) DMSO. Stock solutions of test and reference compounds are diluted in assay buffer with DTT (1.25 mM) containing 4.5% (v/v) DMSO. 10 μl of test or reference compound are added to the appropriate wells of 96 well U-bottomed plate. Total enzyme activity is determined by measuring ALK5 T204D activity in the absence of ALK5 kinase inhibitor reference compounds. Non-specific binding (NSB) is determined by measuring the activity of ALK5 T204D in the presence of ALK5 kinase inhibitor reference compounds. 10 μl of dephosphorylated casein stock solution (dephosphorylated casein is dissolved in ddH2O at 20 mg/ml) is added per well (200 μg/well final assay concentration). 20 μl of ALK5 T204D (2.5 μg/ml solution) is added per well (50 ng/well final assay concentration). The plates are left to incubate at room temperature for 10 minutes.
10 μl of ATP mix is added to the well to initiate the reaction (0.66 nM [^33P]ATP/1 μM unlabelled ATP/well final assay concentration). The ATP mix is prepared as follows, unlabelled ATP (3 mM) is dissolved in ddH2O and pH adjusted to 7.4. The stock concentration of [^33P]ATP is 10 μCi/μl. The appropriate volume of [^33P]ATP is added to unlabelled ATP solution such that the final assay concentration per well is 0.1 μCi. Following addition of the ATP mix, the plates are incubated at room temperature for 50 minutes. The kinase reaction is terminated by the addition of 50 μL Stop Buffer (20 mM Tris-HCl pH 7.4, 10 mM EDTA).
75 μ/well from the reaction plate is transferred to a Multiscreen-IP plate (MultiScreen-IP plates are prepared by added 50 μL of 70% (v/v) ethanol per well and incubated for 5 minutes at room temperature. The ethanol is removed by aspiration via a MultiScreen HTS Vaccum Manifold unit (Millipore, Cat no: MSVMHT500). The plates are washed twice by adding 200 μl/well ddH2O). The MultiScreen-IP plate is incubated at room temperature for 30 minutes to allowing binding of casein to the plate. The MultiScreen-IP plates are washed three times by adding 200 μl/well 100 mM phosphoric acid solution and the gasket is carefully removed from the back of the MultiScreen-IP plate and the plate dried in the oven for 30 minutes. The MultiScreen-IP plate is backsealed, 50 μL of Microscint®20 is added, then the plates are topsealed and radiolabelled casein detected and quantified on a TopCount™ plate-reader using the ^33P scintillation protocol.
As to `O=Cc1cccc(-c2ccn3c(-c4ccnc(N5CCCC5)c4)cnc3c2)c1` [Example 1.46, 3-[3-(2-Pyrrolidin-1-yl-pyridin-4-yl)-imidazo[1,2-a]pyridin-7-yl]-benzaldehyde], the IC50 was 52 nM.

As for `CS(=O)(=O)Nc1cccc(-c2ccc3ncc(-c4ccnc(-c5ccoc5)c4)n3c2)c1` [Example 2.20, N-{3-[3-(2-Furan-3-yl-pyridin-4-yl)-imidazo[1,2-a]pyridin-6-yl]-phenyl}-methanesulfonamide], half-maximal inhibition (IC50) required 97 nM.

For the molecule `CCOc1cc(-c2cnc3ccc(N[C@H]4CC[C@H](O)CC4)cn23)ccn1` [Example 2.7], the IC50 is 281 nM.

The molecule `CNC(=O)c1cccc(-c2ccn3c(-c4ccnc(-c5cccc(F)c5)c4)cnc3c2)c1` [Example 1.13, 3-{3-[2-(3-Fluoro-phenyl)-pyridin-4-yl]-imidazo[1,2-a]pyridin-7-yl}-N-methyl-benzamide] displayed an IC50 of 55 nM.

Consider `c1cncc(-c2ccn3c(-c4cccc(-n5cccn5)c4)cnc3c2)c1` [Example 1.1, 3-(3-Pyrazol-1-yl-phenyl)-7-pyridin-3-yl-imidazo[1,2-a]pyridine], for which it took 4 nM to reach half-maximal inhibition (IC50).

The molecule `Fc1cccc(-c2cc(-c3cnc4cc(-c5cccnc5)ccn34)ccn2)c1` [Example 1.17, 3-[2-(3-Fluoro-phenyl)-pyridin-4-yl]-7-pyridin-3-yl-imidazo[1,2-a]pyridine] registered an IC50 of 76 nM.

`c1ccc(-c2cc(-c3cnc4cc(-c5ccc(N6CCOCC6)nc5)ccn34)ccn2)cc1` [Example 1.5, 7-(6-Morpholin-4-yl-pyridin-3-yl)-3-(2-phenyl-pyridin-4-yl)-imidazo[1,2-a]pyridine] had an IC50 of 8 nM.

For `O=Cc1cccc(-c2ccn3c(-c4cccc(-n5cccn5)c4)cnc3c2)c1` [Example 1.9, 3-[3-(3-Pyrazol-1-yl-phenyl)-imidazo[1,2-a]pyridin-7-yl]-benzaldehyde], the IC50 came out at 86 nM. Against the preceding molecule, the IC50 is about 11-fold higher.

Molecule `CNC(=O)c1cccc(-c2ccn3c(-c4ccnc(-n5ccc(C)n5)c4)cnc3c2)c1` [Example 1.23, N-Methyl-3-{3-[2-(3-methyl-pyrazol-1-yl)-pyridin-4-yl]-imidazo[1,2-a]pyridin-7-yl}-benzamide] yielded an IC50 of 77 nM.

Take `c1cc(-c2cnc3ccc(-c4ccoc4)cn23)cc(-c2ccoc2)n1` [Example 2.12, 6-Furan-3-yl-3-(2-Furan-3-yl-pyridin-4-yl)-imidazo[1,2-a]pyridine]: half-maximal inhibition (IC50) required 147 nM.

In turn, `COc1cc(-c2cnc3ccc(N[C@H]4CC[C@H](O)CC4)cn23)ccn1` [Example 2.2] showed an IC50 of 108 nM.

For the molecule `Fc1ccccc1-c1cc(-c2cnc3cc(-c4cccnc4)ccn23)ccn1` [Example 1.30, 3-[2-(2-Fluoro-phenyl)-pyridin-4-yl]-7-pyridin-3-yl-imidazo[1,2-a]pyridine], the IC50 came out at 47 nM.

On to `CNC(=O)c1ccc(-c2ccc3ncc(-c4ccnc(-c5ccoc5)c4)n3c2)cc1` [Example 2.18, 4-[3-(2-Furan-3-yl-pyridin-4-yl)-imidazo[1,2-a]pyridin-6-yl]-N-methyl-benzamide], for which half-maximal inhibition (IC50) was put at 57 nM.

For another data set, the system named is bleomycin-treated rats.
Test: not given
To be noted: cited from earlier work.
Regarding B1, the lung fibrosis result is recorded as “attenuated lung fibrosis”; the “number of macrophages and neutrophils in bronchoalveolar lavage” value is reported as “significantly reduced”.

Usually IC50 stands for the concentration that gives 50% inhibition. A low value points to inhibition by little substance.
